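Five compound concentrations were applied to cells in 96-well plates for 48 hours; endpoints were derived by simple linear interpolation of the resulting dose-response curve. Here, GI50 denotes the concentration required for 50% inhibition of growth.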 Calls of active or inactive are those of the source. Cut-off read from the data, not from the text of the source: active = GI50 up to about 1.1 µM and inactive = higher.
Columns and labels:
Test in all cases: inhibition of tumour cell growth, NCI panel, 48 h
786-0 = system: 786-0
A549 = system: A549
CAKI-1 = system: CAKI-1
CCRF-CEM = system: CCRF-CEM
COLO 205 = system: COLO 205
DLD-1 = system: DLD-1
DMS-114 = system: DMS-114
EKVX = system: EKVX
HCT-116 = system: HCT-116
HCT-15 = system: HCT-15
HL-60 = system: HL-60
HOP-18 = system: HOP-18
HOP-62 = system: HOP-62
HOP-92 = system: HOP-92
HT-29 = system: HT-29
IGROV-1 = system: IGROV-1
K562 = system: K562
KM12 = system: KM12
LOX IMVI = system: LOX IMVI
LXFL 529 = system: LXFL 529
M14 = system: M14
M19-MEL = system: M19-MEL
MOLT-4 = system: MOLT-4
Malme-3M = system: Malme-3M
NCI-H23 = system: NCI-H23
NCI-H522 = system: NCI-H522
OVCAR-3 = system: OVCAR-3
OVCAR-5 = system: OVCAR-5
OVCAR-8 = system: OVCAR-8
RPMI-8226 = system: RPMI-8226
RXF 393 = system: RXF 393
SF-268 = system: SF-268
SF-295 = system: SF-295
SK-MEL-28 = system: SK-MEL-28
SK-MEL-2 = system: SK-MEL-2
SK-MEL-5 = system: SK-MEL-5
SK-OV-3 = system: SK-OV-3
SN12C = system: SN12C
SNB-19 = system: SNB-19
SNB-75 = system: SNB-75
SNB-78 = system: SNB-78
SR = system: SR
SW-620 = system: SW-620
TK-10 = system: TK-10
UACC-257 = system: UACC-257
UACC-62 = system: UACC-62
UO-31 = system: UO-31
ACHN = system: ACHN
HCC 2998 = system: HCC 2998
NCI-H460 = system: NCI-H460
OVCAR-4 = system: OVCAR-4
SF-539 = system: SF-539

Structure (SMILES): NC(=S)N/N=C/c1cn(CCCl)c2ccccc12
- GI50 (786-0): 43.7 µM (inactive)
- GI50 (A549): 34.9 µM (inactive)
- GI50 (CAKI-1): 18.7 µM (inactive)
- GI50 (CCRF-CEM): 20.7 µM (inactive)
- GI50 (COLO 205): 46.5 µM (inactive)
- GI50 (DLD-1): 71.9 µM (inactive)
- GI50 (DMS-114): 21.9 µM (inactive)
- GI50 (EKVX): 14.7 µM (inactive)
- GI50 (HCT-116): 27.4 µM (inactive)
- GI50 (HCT-15): 8.69 µM
- GI50 (HL-60): 9.57 µM (inactive)
- GI50 (HOP-18): 61.9 µM (inactive)
- GI50 (HOP-62): 89.5 µM (inactive)
- GI50 (HOP-92): 21.9 µM (inactive)
- GI50 (HT-29): 23.9 µM (inactive)
- GI50 (IGROV-1): > 100 µM (inactive)
- GI50 (K562): 8.05 µM (inactive)
- GI50 (KM12): 32.7 µM (inactive)
- GI50 (LOX IMVI): 25 µM (inactive)
- GI50 (LXFL 529): 39.7 µM (inactive)
- GI50 (M14): 56.4 µM (inactive)
- GI50 (M19-MEL): 52.1 µM (inactive)
- GI50 (MOLT-4): 14.2 µM (inactive)
- GI50 (Malme-3M): > 100 µM (inactive)
- GI50 (NCI-H23): > 100 µM (inactive)
- GI50 (NCI-H522): 11.9 µM (inactive)
- GI50 (OVCAR-3): 36.8 µM (inactive)
- GI50 (OVCAR-5): 3.81 µM (inactive)
- GI50 (OVCAR-8): 57.3 µM (inactive)
- GI50 (RPMI-8226): 14.2 µM (inactive)
- GI50 (RXF 393): > 100 µM (inactive)
- GI50 (SF-268): > 100 µM (inactive)
- GI50 (SF-295): 13.6 µM (inactive)
- GI50 (SK-MEL-28): 63.5 µM (inactive)
- GI50 (SK-MEL-2): 72.1 µM (inactive)
- GI50 (SK-MEL-5): 15.9 µM (inactive)
- GI50 (SK-OV-3): > 100 µM (inactive)
- GI50 (SN12C): 89.7 µM (inactive)
- GI50 (SNB-19): > 100 µM (inactive)
- GI50 (SNB-75): 12.9 µM (inactive)
- GI50 (SNB-78): > 100 µM (inactive)
- GI50 (SR): 11 µM (inactive)
- GI50 (SW-620): 43.6 µM (inactive)
- GI50 (TK-10): 90.2 µM (inactive)
- GI50 (UACC-257): 22 µM (inactive)
- GI50 (UACC-62): 30.2 µM (inactive)
- GI50 (UO-31): 16.9 µM (inactive)

Structure (SMILES): CCN(CC)CC/N=C\c1c(O)c(O)c(C(C)C)c2cc(C)c(-c3c(C)cc4c(C(C)C)c(O)c(O)c(/C=N/CCN(CC)CC)c4c3O)c(O)c12
- GI50 (ACHN): 2.66 µM (inactive)
- GI50 (CCRF-CEM): 0.354 µM (active)
- GI50 (COLO 205): 3.54 µM (inactive)
- GI50 (DMS-114): 1.58 µM (inactive)
- GI50 (HCC 2998): 2.11 µM (inactive)
- GI50 (HCT-116): 1.82 µM (inactive)
- GI50 (HOP-62): 2.65 µM (inactive)
- GI50 (HOP-92): 2.38 µM (inactive)
- GI50 (HT-29): 1.77 µM (inactive)
- GI50 (IGROV-1): 2.74 µM (inactive)
- GI50 (K562): 1.02 µM (active)
- GI50 (KM12): 1.1 µM (active)
- GI50 (LXFL 529): 1.46 µM (inactive)
- GI50 (M14): 1.83 µM (inactive)
- GI50 (M19-MEL): 3.45 µM (inactive)
- GI50 (MOLT-4): 1.29 µM (inactive)
- GI50 (Malme-3M): 4.16 µM (inactive)
- GI50 (NCI-H23): 2.95 µM (inactive)
- GI50 (NCI-H460): 2.32 µM (inactive)
- GI50 (NCI-H522): 0.959 µM (active)
- GI50 (OVCAR-3): 1.59 µM (inactive)
- GI50 (OVCAR-4): 0.959 µM (active)
- GI50 (RPMI-8226): 1.53 µM (inactive)
- GI50 (RXF 393): 1.33 µM (inactive)
- GI50 (SF-268): 4 µM (inactive)
- GI50 (SF-295): 1.58 µM (inactive)
- GI50 (SF-539): 2.2 µM (inactive)
- GI50 (SK-MEL-28): 3.17 µM (inactive)
- GI50 (SK-MEL-2): 2.3 µM (inactive)
- GI50 (SK-OV-3): 3.46 µM (inactive)
- GI50 (SNB-19): 1.65 µM (inactive)
- GI50 (SNB-75): 5.31 µM (inactive)
- GI50 (SNB-78): 0.716 µM (active)
- GI50 (UACC-257): 5.53 µM (inactive)
- GI50 (UACC-62): 2.55 µM (inactive)
- GI50 (UO-31): 2.93 µM (inactive)
